This note sets out measurements from ChEMBL document CHEMBL5316306 (J Med Chem, 2023).

pEC50, pIC50: −log10 of the molar value. Calls of active or inactive are those of the source. The calls are words filed in the database; no cut-off is given here.

Test [1] concerns the target T1, Proteasome Macropain subunit MB1 (Homo sapiens, UniProt P28074).
T1 sequence (P28074 whole entry): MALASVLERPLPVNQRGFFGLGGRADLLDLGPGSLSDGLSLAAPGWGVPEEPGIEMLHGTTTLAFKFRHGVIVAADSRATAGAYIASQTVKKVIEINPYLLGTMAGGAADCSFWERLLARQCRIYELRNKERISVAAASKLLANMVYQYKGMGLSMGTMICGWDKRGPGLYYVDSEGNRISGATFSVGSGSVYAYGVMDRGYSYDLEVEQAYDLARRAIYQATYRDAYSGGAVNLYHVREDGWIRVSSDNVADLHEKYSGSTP
Put plainly: Inhibition of 20s constitutive proteasome beta-5c (unknown origin).

Test [2] addresses T2, Proteasome Macropain subunit MB1 (Homo sapiens) (UniProt P28074).
T2 sequence (whole entry): T1 sequence (P28074 whole entry)
Briefly: Inhibition of 20s constitutive proteasome beta-5c (unknown origin) assessed as recovery half life time.

For test [3], the target named is T2, Proteasome Macropain subunit MB1 (Homo sapiens). Briefly: Time dependent inhibition of human 20s constitutive proteasome beta-5c assessed as restoration of enzyme activity at 10 nM using suc-LLVY-AMC as substrate. The following applies: time <= 90.0 min, TDE = time-dependent effect.
The next test deals with HepG2. Briefly: Cytotoxicity against human HepG2 cells after 72 hrs by celltitre-glo assay. Format: functional, cell-based. The following applies: HepG2, 72 h.
In test [4] the test system is MM1.S. Put plainly: Cytotoxicity against human MM1.S cells after 72 hrs by celltitre-glo assay. Format: functional, cell-based.
The test system of test [5] is RPMI-8226. Briefly: Cytotoxicity against human RPMI-8226 cells after 72 hrs by celltitre-glo assay. Format: functional, cell-based. The following applies: RPMI-8226, 72 h.
For test [6], the target named is T3, Proteasome subunit beta type-8 (Homo sapiens) (UniProt P28062).
T3 sequence (whole entry): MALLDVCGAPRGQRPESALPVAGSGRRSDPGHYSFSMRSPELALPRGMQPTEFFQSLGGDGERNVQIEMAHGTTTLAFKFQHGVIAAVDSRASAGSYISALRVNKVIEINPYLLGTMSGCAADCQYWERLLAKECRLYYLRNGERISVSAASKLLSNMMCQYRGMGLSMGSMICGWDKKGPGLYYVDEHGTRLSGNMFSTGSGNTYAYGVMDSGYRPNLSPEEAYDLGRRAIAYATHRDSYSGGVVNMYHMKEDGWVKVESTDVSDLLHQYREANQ
The following applies: dose 250.0 nM, time <= 90.0 min.

Test [7] concerns MM1.S. Briefly: Synergistic cytotoxic activity against human MM1.S cells after 72 hrs in presence of 0.01 uM of (S)-(3-((2-(2-(1H-indol-3-yl)-2-oxoacetamido)-4-(tert-butylamino)-4-oxobutanamido)methyl)phenyl)boronic acid by celltitre-glo assay. Format: functional, cell-based.
Test [8] deals with RPMI-8226. Briefly: Synergistic cytotoxic activity against human RPMI-8226 cells after 72 hrs in presence of 0.5 uM of (S)-(3-((2-(2-(1H-indol-3-yl)-2-oxoacetamido)-4-(tert-butylamino)-4-oxobutanamido)methyl)phenyl)boronic acid by celltitre-glo assay. Format: functional, cell-based.
For test [9], the target named is T4, Proteasome subunit beta type-8 (Homo sapiens, UniProt P28062).
T4 sequence (P28062 whole entry): T3 sequence (whole entry)
Briefly: Inhibition of 20s immunoproteasome beta-5i subunit (unknown origin).

A further test deals with PBMC. Briefly: Cytotoxicity against human PBMC cells expressing 20s immunoproteasome beta-5i after 72 hrs by celltitre-glo assay. Format: functional, cell-based.
For test [10], the target named is T5, Proteasome subunit beta type-9 (Homo sapiens, UniProt P28065).
T5 sequence (P28065 whole entry): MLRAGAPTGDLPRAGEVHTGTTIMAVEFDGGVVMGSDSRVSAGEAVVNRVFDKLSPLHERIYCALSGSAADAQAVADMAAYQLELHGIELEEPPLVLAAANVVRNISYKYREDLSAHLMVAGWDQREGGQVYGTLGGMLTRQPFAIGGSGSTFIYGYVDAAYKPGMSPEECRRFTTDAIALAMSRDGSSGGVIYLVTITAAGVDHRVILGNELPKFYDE
Put plainly: Inhibition of human 20s immunoproteasome beta-1i subunit.

Test [11] addresses T6, Proteasome subunit beta type-10 (Homo sapiens, UniProt P40306).
T6 sequence (P40306 whole entry): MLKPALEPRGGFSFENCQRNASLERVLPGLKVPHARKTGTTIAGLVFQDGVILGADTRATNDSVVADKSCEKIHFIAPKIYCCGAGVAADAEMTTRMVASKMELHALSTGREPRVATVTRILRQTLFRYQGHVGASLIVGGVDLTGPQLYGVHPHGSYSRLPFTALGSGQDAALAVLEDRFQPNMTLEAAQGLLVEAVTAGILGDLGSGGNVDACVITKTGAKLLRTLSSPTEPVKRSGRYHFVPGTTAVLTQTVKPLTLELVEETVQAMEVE
Put plainly: Inhibition of human 20s immunoproteasome beta-2i subunit.

For test [12], the target named is T1, Proteasome Macropain subunit MB1. Put plainly: Inhibition of human 20s constitutive proteasome beta-5c.
For test [13], the target named is T4, Proteasome subunit beta type-8. Briefly: Inhibition of human 20s immunoproteasome beta-5i subunit.
Test [14] addresses T2, Proteasome Macropain subunit MB1 (Homo sapiens). Briefly: Inhibition of human 20s constitutive proteasome beta-5c assessed as restoration of enzyme activity at 2 nM incubated for 1 hr followed by compound removal by dialysis measured after 1 hr.
Test [15] shares this target. Briefly: Time dependent inhibition of human 20s constitutive proteasome beta-5c assessed as restoration of enzyme activity at 10 nM using suc-LLVY-AMC as substrate incubated upto 90 mins.
Test [16] addresses T3, Proteasome subunit beta type-8 (Homo sapiens). Put plainly: Time dependent inhibition of human 20s immunoproteasome beta-5i subunit assessed as restoration of enzyme activity at 250 nM using Ac-ANW-AMC as substrate incubated upto 90 mins.
The target in test [17] is Procathepsin L (Homo sapiens) (UniProt P07711). Briefly: Inhibition of human cathepsin L at 100 uM.
Another test addresses Trypsin (Homo sapiens) (UniProt P07477+P07478+P35030). Put plainly: Inhibition of human trypsin at 33.3 uM. Format: protein assay.
Test [18] concerns the target Chymotrypsin (Homo sapiens) (UniProt Q99895+P17538+P40313+Q6GPI1). Put plainly: Inhibition of human chymotrypsin at 11.1 uM. Format: protein assay.
Test [19] concerns the target T2, Proteasome Macropain subunit MB1 (Homo sapiens). Briefly: Inhibition of 20s constitutive proteasome beta-5c in human HepG2 cells incubated by proteasome glo assay kit analysis. The settings on record: time <= 1.0 hrs. Format: cell-based.
Test [20] addresses T3, Proteasome subunit beta type-8 (Homo sapiens). Put plainly: Inhibition of 20s immunoproteasome beta-5i in human PBMC cells incubated by proteasome glo assay kit analysis. Format: cell-based. The settings on record: time <= 1.0 hrs.
In test [21] the test system is MM1.S. Briefly: Synergistic cytotoxic activity against human MM1.S cells after 72 hrs in presence of 0.02 uM of (S)-N5-(tert-butyl)-N1-((S)-1-(((4-fluoronaphthalen-1-yl)methyl)amino)-3-methoxy-1-oxopropan-2-yl)-2-((4-methylphenyl)sulfonamido)pentanediamide by celltitre-glo assay. Format: functional, cell-based.
The test system of test [22] is RPMI-8226. Put plainly: Synergistic cytotoxic activity against human RPMI-8226 cells after 72 hrs in presence of 0.25 uM of (S)-N5-(tert-butyl)-N1-((S)-1-(((4-fluoronaphthalen-1-yl)methyl)amino)-3-methoxy-1-oxopropan-2-yl)-2-((4-methylphenyl)sulfonamido)pentanediamide by celltitre-glo assay. Format: functional, cell-based. The settings on record: RPMI-8226, 72 h.

Chain of Procathepsin L (Homo sapiens) (P07711 114-333 limits assumed): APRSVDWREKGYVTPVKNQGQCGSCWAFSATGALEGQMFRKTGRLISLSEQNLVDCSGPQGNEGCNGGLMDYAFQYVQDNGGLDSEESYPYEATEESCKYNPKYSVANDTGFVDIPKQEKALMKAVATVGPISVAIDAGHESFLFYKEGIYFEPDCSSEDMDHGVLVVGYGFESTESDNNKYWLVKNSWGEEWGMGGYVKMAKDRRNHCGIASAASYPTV

Molecule `COc1ccc(Cc2noc(CN(C(=O)COc3ccc(Br)cc3)C(C)C)n2)cc1OC` gave a pIC50 in test [1] of 7.43.

For `CC(C)C[C@H](NC(=O)[C@H](Cc1ccccc1)NC(=O)c1cnccn1)B(O)O` [BORTEZOMIB], the TIME in test [2] was 1.83 h. Also, the TDI entry in test [3] and in [6] was “Tde” in each case. Further, the negative logarithm of the EC50 (pEC50) in the test on HepG2 was 7.89; in the test on MM1.S [4], 8.70; with RPMI-8226 [5], 8.40.

With `COC[C@H](NC(=O)[C@H](CCC(=O)NC(C)(C)C)NS(=O)(=O)c1ccc(C)cc1)C(=O)NCc1ccc(F)c2ccccc12`, the pEC50 in the test on MM1.S [4] was 6.90; in the test with RPMI-8226 [5], 6.16; in the test with MM1.S [7] it was 6.90; in the test on RPMI-8226 [8], 8.22.

For `COC[C@H](NC(=O)c1cc(C)on1)C(=O)N[C@@H](COC)C(=O)N[C@@H](CC(C)C)C(=O)[C@@]1(C)CO1`, the pIC50 in test [1] was 7.70; in [9], 6.52.

For the molecule `CC(C)(C)NC(=O)C[C@H](NC(=O)C(=O)c1c[nH]c2ccccc12)C(=O)NCc1cccc(B(O)O)c1`, the pEC50 with PBMC was < 4.30; in the test on HepG2, 5.49; with MM1.S [4], 7.24; in the test with RPMI-8226 [5], 5.78; with MM1.S [21], 8.00; in the test on RPMI-8226 [22] it was 6.76. Besides, the negative-log IC50 (pIC50) in test [10] is < 4.48; in test [11], < 4.48; in test [12], 8.00; in test [13], 5.15. For the same molecule, the inhibition result (in test [14]; in [17]; at Trypsin (Homo sapiens); in test [18]) was “inactive” throughout. In addition, the TDI result in test [15] and in [16] was “inactive” in each case. The inhibition result in test [19] and in test [20] was “Dose-Dependent Effect” throughout.

In the case of `CCCc1ccc(OCC(=O)N(Cc2nc(-c3cccnc3)no2)C(C)C)cc1`, the pIC50 was 7.57 in test [1], 5.66 in test [9], 8.30 in [12] and < 4.00 in [13].

As to `CC(C)(C)NC(=O)CC[C@H](NC(=O)C(=O)c1c[nH]c2ccccc12)C(=O)NCc1cccc(B(O)O)c1`, the negative-log IC50 (pIC50) in [10] is < 4.48; in test [11], < 4.48; in test [12], 7.07; in test [13], 4.95. Moreover, the figures for the pEC50 in the test with HepG2, in the test with MM1.S [4] and in the test on RPMI-8226 [5] were 4.31, 6.12 and 4.82, respectively.

Regarding `CC(C)C[C@H](NC(=O)CN1CCOCC1)C(=O)N[C@@H](C[C@H]1CC[C@H](C2CCCCC2)CC1)C(=O)N[C@@H](Cc1ccccc1)C(=O)N[C@@H](C)C(=O)[C@@]1(C)CO1`, the negative logarithm of the IC50 (pIC50) in [9] was 4.64.

On to `Cc1ccc(S(=O)(=O)N[C@@H](CC(=O)NC(C)(C)C)C(=O)NCc2ccco2)cc1`, for which the pIC50 in [12] and in test [13] was < 4.00 in each case.

In general, pIC50 refers to the IC50 on a negative log10 scale, so that one unit is a factor of ten. A lower pIC50 goes with a large IC50. As a reminder, the pEC50 is −log10 of the EC50, conventionally taken in molar units.
